The source made the active and inactive calls. The rule behind the calls is not given here.
How the values were obtained:
[1] = target: T1, Pancreatic triacylglycerol lipase (Sus scrofa) (UniProt P00591); experiment: Inhibition of pig pancreatic lipase at 30 uM after 10 mins by spectrophotometry relative to control
T1 sequence (whole entry): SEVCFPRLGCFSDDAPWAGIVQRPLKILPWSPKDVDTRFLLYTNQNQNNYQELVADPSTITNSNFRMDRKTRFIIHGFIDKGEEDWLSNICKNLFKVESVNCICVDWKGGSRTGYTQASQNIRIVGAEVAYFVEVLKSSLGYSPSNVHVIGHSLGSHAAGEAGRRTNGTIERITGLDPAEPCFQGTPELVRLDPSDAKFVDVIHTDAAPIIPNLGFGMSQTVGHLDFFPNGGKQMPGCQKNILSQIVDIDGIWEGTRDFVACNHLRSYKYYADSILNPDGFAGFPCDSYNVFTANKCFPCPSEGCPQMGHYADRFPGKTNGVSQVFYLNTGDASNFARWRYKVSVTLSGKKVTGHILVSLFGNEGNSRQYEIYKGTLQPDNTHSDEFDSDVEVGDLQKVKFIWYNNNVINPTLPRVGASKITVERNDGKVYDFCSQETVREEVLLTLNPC

[2] = target: T1, Pancreatic triacylglycerol lipase (Sus scrofa); experiment: Inhibition of pig pancreatic lipase after 10 mins by spectrophotometry relative to control
Mus musculus [3] = experiment: Reduction in plasma triglyceride level in corn oil-fed po dosed ddY mouse after 2 to 6 hrs relative to control; type: functional, organism-based
Mus musculus [4] = experiment: Reduction in plasma triglyceride level in corn oil-fed ddY mouse at 30 mg/kg, po after 2 to 6 hrs relative to control; type: functional; parameters: scale not given: the % may be the effect or the level left
Mus musculus [5] = experiment: Reduction in plasma triglyceride level in corn oil-fed ddY mouse at 150 mg/kg, po after 2 to 6 hrs relative to control; type: functional; parameters: scale not given: the % may be the effect or the level left
[6] = Cytotoxicity against mouse 3T3L1 cells at 1 to 4 uM after 7 days by MTT assay; type: cell-based; settings: 3t3-l1, 168 h
[7] = (§1) Antiobesity activity in mouse 3T3L1 cells assessed as suppression of DIM-stimulated lipid accumulation at 4 uM after 7 days by Oil Red O staining method relative to control; type: functional; settings: 3T3-L1, 168 h
3T3-L1 = experiment: as §1; type: functional
[8] = Antiobesity activity in mouse 3T3L1 cells assessed as suppression of DIM-stimulated lipid accumulation at 25 to 50 uM after 7 days by Oil Red O staining method relative to control; type: functional, 3T3-L1

inhibition [1] | ED50 [2] | inhibition [2] | SMILES | Activity (Mus musculus [3]) | Activity (Mus musculus [4]) | Activity (Mus musculus [5]) | Activity [6] | inhibition at 4 µM [7] | inhibition (3T3-L1) | inhibition (INH) [8]
38% | > 40 µM | Dose-dependent effect | CCCCCCCCCCOC(=O)/C=C/c1ccc(O)c(O)c1 | Dose-dependent effect | 78% | 69% | Non-toxic | 71% | – | –
54% | 22 µM | Dose-dependent effect | O=C(/C=C/c1ccc(O)c(O)c1)OCCCCCCc1ccccc1 | – | – | – | Non-toxic | 46% | – | –
92% | 0.9 µM | Dose-dependent effect | CCCCCCCCCCOC(=O)/C=C/c1cc(O)c(O)c(O)c1 | Dose-dependent effect | 73% | 57% | – | 84% | – | –
inactive | – | – | CCCCCCCCCCOC(=O)/C=C/c1ccc(O)cc1 | – | – | – | – | – | inactive | –
62% | – | – | CC(C)=CCC/C(C)=C/COC(=O)/C=C/c1ccc(O)c(O)c1 [GERANYL CAFFEATE] | – | – | – | Non-toxic | 20% | – | –
62% | 10 µM | Dose-dependent effect | O=C(/C=C/c1ccc(O)c(O)c1)OCCc1ccccc1 [CAFFEIC ACID PHENETHYL ESTER] | – | – | – | Non-toxic | 11% | – | 24%
inactive | – | – | O=C(/C=C/c1ccc(O)cc1)OCCCCCCc1ccccc1 | – | – | – | – | – | inactive | –
inactive | – | – | O=C(/C=C/c1ccc(O)cc1)OCCc1ccccc1 | – | – | – | – | – | inactive | –
inactive | – | – | CCCCCCCCCCOC(=O)/C=C/c1cccc(O)c1 | – | – | – | – | – | inactive | –

From ChEMBL document CHEMBL3596164, “Inhibitory effects of hydroxylated cinnamoyl esters on lipid absorption and accumulation” (Bioorg Med Chem, 2015)
